Results from US20110044938A1 (NYCOMED GMBH, priority 2006, published 2011).

Assays:
[1] = system: RKO (RKOp27) human colon adenocarcinoma cells; assay: Alamar Blue cell viability assay, anti-proliferative/cytotoxic activity on proliferating RKO subclones; format: cell-based; settings: RKOp27, 72 h, RKO p27 uninduced (proliferating) cells, value = class bound given in Table A, read-out: −logIC50 RKO p27 uninduced (proliferating) (converted)
Method in brief: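 Alamar Blue fluorescence (ex 544, em 590 nm) after 72 h compound exposure at 37 °C, 5% CO2, normalised to untreated controls set at 100%. Cells were seeded at 5000 per well and dosed 24 h later with serial semi-logarithmic dilutions in 10% FCS DMEM, four replicates each. −log IC50 [mol/l] was derived from concentration-effect curves.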

[2] = system: subclones of RKO colon adenocarcinoma cells (RKOp27 or RKOp21) arrested by Ponasterone A; assay: Alamar Blue cell viability assay, cell cycle specific mode of action: cells arrested by ectopic p27Kip1 induced by Ponasterone A versus proliferating cells; format: cell-based; settings: Homo sapiens, RKO p27 induced (arrested) cells, 10 μM Ponasterone A, 72 hours, value = class bound given in Table A, read-out: −logIC50 RKO p27 induced (arrested) (converted)
Method in brief: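 Viability of proliferating versus Ponasterone A (10 μM)-arrested RKOp27/RKOp21 cells after 72 h compound exposure at 37° C, in quadruplicate. Read-out is Alamar Blue fluorescence (544/590 nm) normalised to untreated cells = 100%; values as −log IC50.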

IC50 [2] [nM]	SMILES	IC50 [1] [nM]
≥ 50100	COc1cccc(C(C)CC(=O)Nc2sc3c(c2C#N)CCC(COC(=O)NC2CCOCC2)C3)c1 (stereo not shown) [Example 329, (Tetrahydro-pyran-4-yl)-carbamic acid 3-cyano-2-[3-(3-methoxy-phenyl)-butanoyl-amino]-4,5,6,7-tetrahydro-benzo[b] thiophen-6-ylmethyl ester]	501 to 2000
≥ 50100	CC(CC(=O)Nc1sc2c(c1C#N)CCC(OC(=O)NCc1ccno1)C2)c1ccccc1 (stereo not shown) [Example 372, (Isoxazol-5-ylmethyl)-carbamic acid 3-cyano-2-(3-phenyl-butanoylamino)-4,5,6,7-tetrahydro-benzo[b]thiophen-6-yl ester]	≤ 501
≥ 50100	CC(CC(=O)Nc1sc2c(c1C#N)CCC(COC(=O)NCc1ccncc1)C2)c1ccccc1 (stereo not shown) [Example 306, Pyridin-4-ylmethyl-carbamic acid 3-cyano-2-(3-phenyl-butanoyl-amino)-4,5,6,7-tetrahydro-benzo[b] thiophen-6-ylmethyl ester]	≤ 501
≥ 50100	CC(CC(=O)Nc1sc2c(c1C#N)CCC(OC(=O)NCC1CCCCO1)C2)c1ccccc1 (stereo not shown) [Example 296, (Tetrahydropyran-2-ylmethyl)-carbamic acid 3-cyano-2-(3-phenyl-butanoylamino)-4,5,6,7-tetrahydro-benzo[b]thiophen-6-yl ester]	501 to 2000
≥ 50100	CC(CC(=O)Nc1sc2c(c1C#N)CCC(OC(=O)NCC1CCOCC1)C2)c1ccccc1 (stereo not shown) [Example 267, (Tetrahydro-pyran-4-ylmethyl)-carbamic acid 3-cyano-2-(3-phenyl-butanoylamino)-4,5,6,7-tetrahydro-benzo[b]thiophen-6-yl ester]	≤ 501
≥ 10000	Cc1n[nH]cc1CNC(=O)OCC1CCc2c(sc(NC(=O)CC(C)c3ccccc3)c2C#N)C1 (stereo not shown) [Example 317, (3-Methyl-1H-pyrazol-4-ylmethyl)-carbamic acid 3-cyano-2-(3-phenyl-butanoylamino)-4,5,6,7-tetrahydro-benzo[b] thiophen-6-ylmethyl ester]	≤ 501
≥ 100000	CC(CC(=O)Nc1sc2c(c1C#N)CCC(OC(=O)N1CCCC1)C2)c1ccccc1 (stereo not shown) [Example 360, Pyrrolidine-1-carboxylic acid 3-cyano-2-(3-phenyl-butanoylamino)-4,5,6,7-tetrahydro-benzo[b] thiophen-6-yl ester]	≤ 501
≥ 50100	CC(CC(=O)Nc1sc2c(c1C#N)CCC(COC(=O)NCCc1cccnc1)C2)c1ccccc1 (stereo not shown) [Example 307, (2-Pyridin-3-yl-ethyl)-carbamic acid 3-cyano-2-(3-phenyl-butanoylamino)-4,5,6,7-tetrahydro-benzo[b]thiophen-6-ylmethyl ester]	≤ 501
≥ 100000	Cc1oncc1CNC(=O)OC1CCc2c(sc(NC(=O)CC(C)c3cccnc3)c2C#N)C1 (stereo not shown) [Example 354, (5-Methyl-isoxazol-4-ylmethyl)-carbamic acid 3-cyano-2-(3-pyridin-3-yl-butanoylamino)-4,5,6,7-tetrahydro-benzo[b] thiophen-6-yl ester]	501 to 2000

Continued, compound first:

SMILES	IC50 [2] [nM]	IC50 [1] [nM]
N#Cc1c(NC(=O)/C=C/c2cccnc2)sc2c1CC[C@H](COC(=O)N1CCC[C@@H](O)C1)C2 [Example 87b, (R)-3-Hydroxy-piperidine-1-carboxylic acid (S)-3-cyano-2-((E)-3-pyridin-3-yl-allanoylamino)-4,5,6,7-tetrahydro-benzo[b]thiophen-6-ylmethyl ester]	≥ 100000	≤ 501
COc1cccc(CCC(=O)Nc2sc3c(c2C#N)CCC(OC(=O)NCc2cnoc2C)C3)c1 (stereo not shown) [Example 227, (5-Methyl-isoxazol-4-ylmethyl)-carbamic acid 3-cyano-2-[3-(3-methoxy-phenyl)-propanoylamino]-4,5,6,7-tetrahydro-benzo[b]thiophen-6-yl ester]	≥ 100000	≤ 501
CNC(=O)OCC1CCc2c(sc(NC(=O)/C=C/c3cccnc3)c2C#N)C1 (stereo not shown) [Example 16, Methyl-carbamic acid 3-cyano-2-((E)-3-pyridin-3-yl-allanoylamino)-4,5,6,7-tetrahydro-benzo[b]thiophen-6-ylmethyl ester]	≥ 100000	≤ 501
CCOc1ccccc1CCC(=O)Nc1sc2c(c1C#N)CCC(COC(=O)NCc1ccncc1)C2 (stereo not shown) [Example 181, Pyridin-4-ylmethyl-carbamic acid 3-cyano-2-[3-(2-ethoxy-phenyl)-propanoylamino]-4,5,6,7-tetrahydro-benzo[b]thiophen-6-ylmethyl ester]	≥ 100000	≤ 501
Cc1nocc1CNC(=O)OCC1CCc2c(sc(NC(=O)/C=C/c3cccnc3)c2C#N)C1 (stereo not shown) [Example 64, (3-Methyl-isoxazol-4-ylmethyl)-carbamic acid 3-cyano-2-((E)-3-pyridin-3-yl-allanoylamino)-4,5,6,7-tetrahydro-benzo[b]thiophen-6-ylmethyl ester]	≥ 100000	501 to 2000
CN(C(=O)OCC1CCc2c(sc(NC(=O)/C=C/c3cccnc3)c2C#N)C1)C1CCCC1 (stereo not shown) [Example 138, Cyclopentyl-methyl-carbamic acid 3-cyano-2-((E)-3-pyridin-3-yl-allanoylamino)-4,5,6,7-tetrahydro-benzo[b]thiophen-6-ylmethyl ester]	≥ 100000	501 to 2000
COc1cccc(CCC(=O)Nc2sc3c(c2C#N)CCC(COC(=O)NCc2cnoc2C)C3)c1 (stereo not shown) [Example 242, (5-Methyl-isoxazol-4-ylmethyl)-carbamic acid 3-cyano-2-[3-(3-methoxy-phenyl)-propanoylamino]-4,5,6,7-tetrahydro-benzo[b]thiophen-6-ylmethyl ester]	≥ 100000	≤ 501
CCOc1ccccc1CCC(=O)Nc1sc2c(c1C#N)CCC(COC(=O)NCC1CCOCC1)C2 (stereo not shown) [Example 194, (Tetrahydro-pyran-4-ylmethyl)-carbamic acid 3-cyano-2-[3-(2-ethoxy-phenyl)-propanoylamino]-4,5,6,7-tetrahydro-benzo[b]thiophen-6-ylmethyl ester]	≥ 10000	≤ 501
CN(CC(O)CO)C(=O)OCC1CCc2c(sc(NC(=O)/C=C/c3cccnc3)c2C#N)C1 (stereo not shown) [Example 123, (2,3-Dihydroxy-propyl)-methyl-carbamic acid 3-cyano-2-((E)-3-pyridin-3-yl-allanoylamino)-4,5,6,7-tetrahydro-benzo[b]thiophen-6-ylmethyl ester]	≥ 100000	501 to 2000
CCOc1ccccc1CCC(=O)Nc1sc2c(c1C#N)CCC(COC(=O)NCc1conc1C)C2 (stereo not shown) [Example 198, (3-Methyl-isoxazol-4-ylmethyl)-carbamic acid 3-cyano-2-[3-(2-ethoxy-phenyl)-propanoylamino]-4,5,6,7-tetrahydro-benzo[b]thiophen-6-ylmethyl ester]	≥ 100000	≤ 501
COc1cccc(CCC(=O)Nc2sc3c(c2C#N)CCC(COC(=O)NCc2ccnn2C)C3)c1 (stereo not shown) [Example 237, (2-Methyl-2H-pyrazol-3-ylmethyl)-carbamic acid 3-cyano-2-[3-(3-methoxy-phenyl)-propanoylamino]-4,5,6,7-tetrahydro-benzo[b]thiophen-6-ylmethyl ester]	≥ 100000	501 to 2000
CNC(=O)OCC1CCc2c(sc(NC(=O)CCc3cccnc3)c2C#N)C1 (stereo not shown) [Example 162, Methyl-carbamic acid 3-cyano-2-(3-pyridin-3-yl-propanoylamino)-4,5,6,7-tetrahydro-benzo[b]thiophen-6-ylmethyl ester]	≥ 100000	501 to 2000
N#Cc1c(NC(=O)/C=C/c2cccnc2)sc2c1CCC(COC(=O)N1CC(F)C1)C2 (stereo not shown) [Example 121, 3-Fluoro-azetidine-1-carboxylic acid 3-cyano-2-((E)-3-pyridin-3-yl-allanoylamino)-4,5,6,7-tetrahydro-benzo[b]thiophen-6-ylmethyl ester]	≥ 100000	≤ 501
CCOc1ccccc1CCC(=O)Nc1sc2c(c1C#N)CCC(COC(=O)NCc1nnc(C)o1)C2 (stereo not shown) [Example 200, (5-Methyl-[1,3,4]oxadiazol-2-ylmethyl)-carbamic acid 3-cyano-2-[3-(2-ethoxy-phenyl)-propanoylamino]-4,5,6,7-tetrahydro-benzo[b]thiophen-6-ylmethyl ester]	≥ 100000	501 to 2000
CCOc1ccccc1CCC(=O)Nc1sc2c(c1C#N)CCC(COC(=O)NCc1nccn1C)C2 (stereo not shown) [Example 183, (1-Methyl-1H-imidazol-2-ylmethyl)-carbamic acid 3-cyano-2-[3-(2-ethoxy-phenyl)-propanoylamino]-4,5,6,7-tetrahydro-benzo[b]thiophen-6-ylmethyl ester]	≥ 50100	≤ 501
CN(C)C(=O)OC1CCc2c(sc(NC(=O)/C=C/c3cccnc3)c2C#N)C1 (stereo not shown) [Example 78, Dimethyl-carbamic acid 3-cyano-2-((E)-3-pyridin-3-yl-allanoylamino)-4,5,6,7-tetrahydro-benzo[b]thiophen-6-yl ester]	≥ 100000	≤ 501
CCOc1ccccc1CCC(=O)Nc1sc2c(c1C#N)CCC(OC(=O)NCc1conc1C)C2 (stereo not shown) [Example 205, (3-Methyl-isoxazol-4-ylmethyl)-carbamic acid 3-cyano-2-[3-(2-ethoxy-phenyl)-propanoylamino]-4,5,6,7-tetrahydro-benzo[b]thiophen-6-yl ester]	≥ 100000	≤ 501
